Results: US10160755B2 (Plexxikon Inc., priority 2015, dated 2018)

Target: T1, BA/F3-FLT3-ITD + F691L cells (Homo sapiens, UniProt P36888, F691L, cells depend on it, form not given)
T1 sequence (P36888 1-993 F691L): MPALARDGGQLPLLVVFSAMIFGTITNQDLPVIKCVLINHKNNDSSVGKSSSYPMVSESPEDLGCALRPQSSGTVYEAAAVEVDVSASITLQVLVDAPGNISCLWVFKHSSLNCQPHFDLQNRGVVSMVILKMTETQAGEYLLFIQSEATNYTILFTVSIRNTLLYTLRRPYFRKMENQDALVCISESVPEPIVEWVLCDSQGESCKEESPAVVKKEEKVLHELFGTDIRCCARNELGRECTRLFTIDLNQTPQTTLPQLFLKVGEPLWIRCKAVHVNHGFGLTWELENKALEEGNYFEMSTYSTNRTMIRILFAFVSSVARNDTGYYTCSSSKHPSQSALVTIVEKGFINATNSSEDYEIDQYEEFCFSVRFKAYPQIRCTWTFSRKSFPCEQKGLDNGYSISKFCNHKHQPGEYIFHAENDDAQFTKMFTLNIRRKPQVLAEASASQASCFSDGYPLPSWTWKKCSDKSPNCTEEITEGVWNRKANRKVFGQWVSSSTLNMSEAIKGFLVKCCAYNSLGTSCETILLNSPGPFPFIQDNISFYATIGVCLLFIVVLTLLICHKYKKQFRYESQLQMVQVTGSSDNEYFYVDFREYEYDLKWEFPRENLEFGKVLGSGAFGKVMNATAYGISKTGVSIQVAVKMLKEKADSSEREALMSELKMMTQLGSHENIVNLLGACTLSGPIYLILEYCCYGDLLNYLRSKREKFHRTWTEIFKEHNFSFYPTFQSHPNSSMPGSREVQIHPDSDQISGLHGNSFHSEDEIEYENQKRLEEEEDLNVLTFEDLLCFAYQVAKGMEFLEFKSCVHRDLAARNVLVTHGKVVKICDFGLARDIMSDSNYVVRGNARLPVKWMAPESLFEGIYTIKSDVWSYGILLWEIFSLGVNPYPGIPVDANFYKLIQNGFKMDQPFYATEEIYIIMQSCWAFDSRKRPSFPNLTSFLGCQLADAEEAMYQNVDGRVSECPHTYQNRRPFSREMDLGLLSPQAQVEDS
Assay: BA/F3-FLT3-ITD + F691L cell proliferation assay (CellTiter-Glo)
Format: cell-based, murine
Conditions: BaF3 FLT3 ITD/F691L cells; read-out: Cell Activity (IC50 μM) BaF3_FLT3_ITD/F691L
Outline: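 Murine BA/F3 cells transfected with full-length FLT3 carrying ITD plus D835Y or F691L, grown without IL-3 so growth depends on FLT3. Seeded at 1×10^4 cells/well and dosed with 8 points, 10 to 0.0046 μM, 0.2% DMSO, for three days at 37 °C. IC50 from CellTiter-Glo luminescence (ATP content).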

| GI50 [µM] | SMILES |
| --- | --- |
| 0.0001 to 1 | CC(C)(O)c1ncc(-c2cnc3[nH]cc(-c4ccc5ncn(C(C)(C)C)c5c4)c3n2)cn1 [P-380, 2-[5-[7-(3-tert-butylbenzimidazol-5-yl)-5H-pyrrolo[2,3-b]pyrazin-2-yl]pyrimidin-2-yl]propan-2-ol] |
| 0.0001 to 1 | c1cc(N2CCOCC2)ncc1-c1cnc2[nH]cc(-c3ccc4ncn(C5CCCNC5)c4c3)c2c1 (centres unmarked) [P-321, 4-[5-[3-[3-(3-piperidyl)benzimidazol-5-yl]-1H-pyrrolo[2,3-b]pyridin-5-yl]-2-pyridyl]morpholine] |
| 0.0001 to 1 | CN1CCN(c2ccc(-c3cnc4[nH]cc(-c5ccc6ncn(C(C)(C)C)c6c5)c4n3)cc2)CC1 [P-341, 7-(3-tert-butylbenzimidazol-5-yl)-2-[4-(4-methylpiperazin-1-yl)phenyl]-5H-pyrrolo[2,3-b]pyrazine] |
| 0.0001 to 1 | CC(C)(C)n1cnc2ccc(-c3c[nH]c4ncc(-c5ccc(N6CCOCC6)nc5)nc34)cc21 [P-326, 4-[5-[7-(3-tert-butylbenzimidazol-5-yl)-5H-pyrrolo[2,3-b]pyrazin-2-yl]-2-pyridyl]morpholine] |
| 0.0001 to 1 | Cc1cc(C#Cc2cnc3[nH]cc(-c4ccc5ncn(C6CCCNC6)c5c4)c3n2)cc(C)n1 (centres unmarked) [P-283, 2-[2-(2,6-dimethyl-4-pyridyl)ethynyl]-7-[3-(3-piperidyl)benzimidazol-5-yl]-5H-pyrrolo[2,3-b]pyrazine] |
| 0.0001 to 1 | FC(F)(F)Cn1cc(-c2cnc3[nH]cc(-c4ccc5ncn(C6CCCNC6)c5c4)c3c2)cn1 (centres unmarked) [P-275, 1-(3-piperidyl)-6-[5-[1-(2,2,2-trifluoroethyl)pyrazol-4-yl]-1H-pyrrolo[2,3-b]pyridin-3-yl]benzimidazole] |
| 0.0001 to 1 | Cc1cc(C#Cc2cnc3[nH]cc(-c4ccc5ncn(C(C)(C)C)c5c4)c3n2)cc(C)n1 [P-282, 7-(3-tert-butylbenzimidazol-5-yl)-2-[2-(2,6-dimethyl-4-pyridyl)ethynyl]-5H-pyrrolo[2,3-b]pyrazine] |
| 0.0001 to 1 | CC(C)(C)n1cnc2ccc(-c3c[nH]c4ncc(-c5ccnc(N6CCCCC6)c5)nc34)cc21 [P-338, 7-(3-tert-butylbenzimidazol-5-yl)-2-[2-(1-piperidyl)-4-pyridyl]-5H-pyrrolo[2,3-b]pyrazine] |
